# Measurements as given in patent publication EP0745083B1, “2-HETEROARYL-5,11-DIHYDRO-6H-DIPYRIDO [3,2-b:2',3'-e][1,4]DIAZEPINES AND THEIR USE IN THE PREVENTION OR TREATMENT OF HIV INFECTION” (BOEHRINGER INGELHEIM PHARMACEUTICALS INC., priority 1994, dated 1995).
# Assays:
# [1] = target: T1, HIV-1 RT Y181C (Human immunodeficiency virus type 1 group M subtype B, UniProt P03367, Y780C); assay: Reverse Transcriptase (RT) Assay, Y181C mutant enzyme; assay type: biochemical, Human Immunodeficiency Virus (HIV-1); conditions: 1 µM compound, read-out: Reverse Transciptase Assay % inhibition (1 µM) Y181C
# T1 construct: Utilization of mutant RT eraymes (Y181C and Y181L, prepared by site-directed mutagenesis); made in house
# From the text: Among the enzymes for which Human Immunodeficiency Virus (HIV-1) encodes is a reverse transcriptase (1), so-named because it transcribes a DNA copy from an RNA template. This activity can be quantitatively measured in a cell-free enzyme assay, which has been previously described (2), and is based upon the observation that reverse transcriptase is able to use a synthetic template [poly r(C) primed with oligo d(G)] to transcribe a radio-labelled, acid-precipitable DNA strand utilizing ^3H-dGTP as a substrate. The assay described below utilizes the wild type (WT) enzyme, which is the predominant form of the enzyme observed in patients infected with HIV-1. Utilization of mutant RT eraymes (Y181C and Y181L, prepared by site-directed mutagenesis in which the tyrosine residue at codon 181 has been replaced by a cysteine or a leucine residue, respectively) and analogous assay conditions allows compounds to be evaluated for their effectiveness at inhibiting these mutant enzymes.
# The 2X concentrated stock reaction mixture is aliquoted and stored at -20°C. The mixture is stable and thawed for use in each assay. This enzyme assay has been adapted to a 96 well microtiter plate system, and has been previously described (6). Tris buffer (50 mM, pH 7.4), vehicle (solvent diluted to match the compound dilution), or compounds in vehicle are dispensed into 96-well microtiter plates (10µL/well; 3 wells/ compound). The HIV-1 RT enzyme is thawed, diluted in 50mM Tris pH 7.4 so that fifteen µL of diluted enzyme contain 0.001 Unit (one unit is that amount of enzyme to transform 1 micromole of substrate per minute at 25°C), and fifteen µL are dispensed per well. Twenty µL of 0.12-0.5M EDTA are added to the first three wells of the microtiter plate. EDTA chelates the Mg^++ present and prevents reverse transcription. This group serves as background polymerization which is subtracted from all other groups. Twenty-five ul of the 2X reaction mixture are added to all wells and the assay is allowed to incubate at room temperature for 60 minutes. The assay is terminated by precipitating the DNA in each well with 50µL of 10% trichloracetic acid (TCA) (10% w/v) in sodium pyrophosphate (1% w/v). The microtiter plate is incubated for 15 minutes at 4°C and the precipitate is fixed onto #30 glass fiber paper (Schleicher & Schuell) using a Skatron semi-automatic harvester. The filters are then washed with additional TCA (5%) containing sodium pyrophosphate (1%), rinsed with aqueous ethanol (70%), dried, and transferred to scintillation vials (6). Each vial receives 2 mL of scintillation cocktail and is counted in a Beckman beta counter. The calculation for percent inhibition is as follows: % inhibition =(CPM Mean Test Value - CPM Mean Control Value X100)/(CPM Mean Control Value) [formula]
# [2] = tested on: HTLV-IIIB strain of HIV-1; assay: Syncytia (human T-cell culture) assay; assay type: cell-based; conditions: Human immunodeficiency virus 1, IIIB, 96 h; c8166 cells; read four days after virus challenge
# Experimental: In order to confirm that compounds which are active in the RT Assay also have the ability to inhibit HIV replication in a living system, compounds according to the invention were also tested in the human T-Cell Culture (Syncytia) Assay described below.
# Formation of syncytia is a feature of in vitro cultures of CD4+ T-cells infected with HIV-1. In this assay, T-cells are treated with a putative replication inhibiting compound and then infected with HIV-1. After incubation, the culture is checked for the formation of syncytia. The absence or reduction in the number of syncytia is used as a measure of the test compound's ability to inhibit HIV replication.
# The target cells, designated c8166, are a subclone of human lymphoma cells of T-cell origin and are established at an initial density of 5x10^4 per 100 ul in RPMI 1640 (+ 10% fetal bovine serum) culture medium in 96 well flat bottom plates. A selected amount of test compound, dissolved in DMSO, is included. After 24 hours, 50-100 TCID50's (the dose that results in induced effect in 50% of test cultures) of the HTLV-IIIB strain of HIV-1 (2) are inoculated into each culture. Control cultures receive compound or virus only. Four days after virus challenge, cultures are visually examined for the frequency and distribution of virus-induced giant cell syncytia. The percent inhibition by the test compound is determined by comparison with control values. Confirmation of the presence or absence of virus replication is accomplished by harvesting the cell free culture fluids from all experimental groups to determine the presence or absence of infectious progeny through the induction of syncytia formation in secondary human T-cell cultures after 3 days.
# [3] = target: T2, HIV-1 RT Y188L (Human immunodeficiency virus type 1 group M subtype B, UniProt P03367, Y787L); assay: Reverse Transcriptase (RT) Assay, Y188L mutant enzyme; assay type: biochemical, Human Immunodeficiency Virus (HIV-1); conditions: 1 µM compound
# T2 construct: effective against the reverse transcriptase of many mutant viruses; made in house
# [4] = MTT assay (cytotoxicity); assay type: cell-based; conditions: human; H9 cells; five days incubation
# Experimental: In order to roughly assess the cytotoxicity of the compounds provided by the invention, several such compounds were tested in the MTT Assay described below. Compounds having a relatively high CC50 are preferred.
# The MTT [3-(4,5-dimethylthiazol-2-yl)-2,5 diphenyl tetrazolium bromide) assay is based on cleavage of tetrazolium bromide by metabolically active cells, resulting in a highly quantitative blue color. This assay has been previously described (1) but has been optimized for the purposes of the testing reported herein.
# The H9 cell line (2), an established human lymphoma suspension cell line grown in RPMI 1640 supplemented with 10% fetal bovine serum, is used as the target cell line in the assay. Cells (100µL) are plated in microtest plate wells at a concentration of 10^5 cells per mL in the presence of varying concentrations of inhibitor. The cells are incubated at 37°C in a humidified CO2 incubator. Five days later, 20µL of MTT (5mg/mL in RPMI 1640, sonicated, 0.2 micron filtered, and stored at 4°C) is added to each well. After 4 hours additional incubation at 37°C, 60µL of Triton-X is added to each well and thoroughly mixed to aid the solubilization of the crystals. Absolute ethanol (5µL) is added to each well and the resulting mixture is incubated for 30 minutes at 60°C and immediately read on a plate reader (Dynatech) at a wavelength of 570nm.
# Data from this assay are used to generate a nonlinear regression analysis which yields an CC50.
SMILES,inhibition at 1 µM [1] [%],IC50 [2] [µM],Reverse Transciptase Assay % inhibition (1 µM) Y188L ([3]; 1 µM) [%],CC50 at 120 h [4] [µM],Reverse Transciptase Assay % inhibition (1 µM) Y188L [3] [%]
"CCN1c2ncccc2C(=O)N(C)c2ccc(-c3cn[nH]c3)nc21 [Example 1, 5,11-Dihydro-11-ethyl-5-methyl-2-(4-pyrazolyl)-6H-dipyrido[3,2-b:2'3'-e][1,4]diazepin-6-one]",96,0.04,77,> 60,–
"CN1C(=O)c2cccnc2N(C2CC2)c2nc(-c3cn[nH]c3)ccc21 [Example 6, 5,11-Dihydro-5-methyl-11-c-propyl-2-(4-pyrazolyl)-6H-dipyrido[3,2-b:2',3'-e][1,4]diazepin-6-one]",87,0.01,–,> 60,84
"CCN1c2ncccc2C(=O)N(C)c2ccc(-c3cc[nH]c3)nc21 [Example 12, 5,11-Dihydro-11-ethyl-5-methyl-2-(3-pyrrolyl)-6H-dipyrido[3,2-b:2',3'-e][1,4]diazepin-6-one]",91,0.04,–,> 50,–
"CN1C(=O)c2cccnc2N(C2CC2)c2nc(-c3cc[nH]c3)ccc21 [Example 25, 11-Cyclopropyl-5,11-dihydro-5-methyl-2-(3-pyrrolyl)-6H-dipyrido[3,2-b:2',3'-e][1,4]diazepin-6-one]",86,80,–,> 80,80
